Results reported in patent US20090298150A1, “PRODUCTION OF SQUALENE USING YEAST” (priority 2008, published 2009).

What was measured:
[1] = system: Yarrowia lipolytica ATCC 90904; test: Cultivation of Yarrowia lipolytica in CYM001 media with supplements; squalene and lipid production; format: cell-based; conditions: 30° C., 300 rpm, 120 h
Procedure: Environmental manipulations are tested to increase the net yield of squalene. These include (a) inhibiting ACCase expression and/or activity with oleic acid, olive or other vegetable oil(s), inositol, choline, soraphen, fluazifop, and clethodim or other ACCase inhibiting herbicides, (b) inhibiting squalene epoxidase expression and/or activity with terbinafine, tolnaftate, and ergosterol or other squalene epoxidase inhibiting fungicides, (c) manipulating the C/N ratio in glycerol-based media (in the starting media or by add-ins), (d) varying the nitrogen source in the media (organic vs. inorganic vs. simple/complex), (e) varying carbon addition regimes (e.g. batch vs. feeding), (f) examining the effect of depleting nutrients other than carbon source, (g) varying the carbon source to include mixtures of sugars, sugar alcohols, alcohols, polyalcohols, and organic acids, (h) selecting for growth on HMGR-inhibitory compounds such as lovastatin or other statin-type inhibitors, and (i) selecting for high oil production in culture using lipophillic dyes or stains and/or by analyzing for extractable lipids using, for example, gravimetric or gas chromatographic methods.
For example, Yarrowia lipolytica ATCC 90904 was cultivated in high Carbon/Nitrogen ratio media (C/N=420, Li, Y-H., Liu, B., Zhao, Z-B., and Bai, F-W. 2006 “Optimized Culture Medium and Fermentation Conditions for Lipid Production by Rhodosporidium toruloides” Chinese Journal of Biotechnology 22(4): 650-656) (hereinafter “CYM001 Media”) supplemented with 0 to 50 μg/ml terbinafine at 30° C., 300 rpm for 120 h. […]
In a further example, Yarrowia lipolytica ATCC 90904 was cultivated in CYM001 media supplemented with 0 to 200 μM clethodim at 30° C., 300 rpm for 120 h.

Cryptococcus curvatus = Cryptococcus curvatus growth on carbon sources (cell mass in culture); conditions: 12% w/v glycerol; Yeast Extract-based rich media; after 5 days
Procedure: Cryptococcus curvatus growth was evaluated to determine the best carbon sources to maximize its cell mass in culture. In a Yeast Extract-based rich media (10 g/L yeast extract, 20 g/L peptone), C. curvatus grew well in 2-20% w/v glucose, achieving a maximal level of 55 g/L cell dry weight (CDW) at 16% w/v glucose and above after 4 days. Similarly, C. curvatus grew in the same media with 3-12% w/v glycerol, achieving a CDW of 40 g/L in 12% w/v glycerol after 5 days. C. curvatus was also grown in Biodiesel glycerol (Imperial Western Products, Coachella, Calif.) up to 3.5% w/v, resulting in 23 g/L CDW.

## CCSC(C)CC1CC(=O)C(/C(CC)=N/OC/C=C/Cl)=C(O)C1 (stereo not shown) [clethodim]
[1]; 200 μM clethodim, CYM001 media
  increase in the yield (mg) of squalene per 60-ml flask: 60 fold

## OCC(O)CO [glycerol]
Cryptococcus curvatus
  cell dry weight (CDW): 40 g/L

## CCCCCCCC/C=C\CCCCCCCC(=O)O [Oleic acid]
[1]; 10 μl/ml Oleic acid, CYM001 media
  lipid accumulation, % lipid/CDW (cell dry weight): 63.3 % lipid/CDW

## CN(C/C=C/C#CC(C)(C)C)Cc1cccc2ccccc12 [terbinafine]
[1]; 12.5 μg/ml or higher terbinafine, CYM001 Media
  squalene as % of total lipid: up to 18.5%
